Tests used:
Settings in all cases: 48 h
P12-Ichikawa [1] = test: cell viability relative to DMSO control; higher = less cytotoxic
Method in brief: (§1)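 NOMO1 or SEM cells were plated at 500 cells/well and P12-Ichikawa cells at 1000 cells/well in 1536-well plates (5 μl), after each leukemia line had been adapted for at least four passages in each medium. Pin dosing delivered library compounds in DMSO at 11 threefold concentrations, 47 μM to 0.79 nM. CellTiter-Glo One luminescence was read after 48 h at 37°C. Viability is reported as a per-plate percentage of DMSO wells, with cell-free wells as background.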

SEM cells [2] = test: as above
Method in brief: as §1

NOMO1 = test: AUC of viability dose-response curve (% viability x log10 dose units); higher = less sensitive
Method in brief: (§2)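 Medium-adapted leukemia cells in 1536-well plates, at 500 or 1000 cells/well, were incubated for 48 h at 37°C with library compounds in DMSO at 11 threefold doses from 47 μM to 0.79 nM. CellTiter-Glo One luminescence normalised per plate to DMSO and cell-free wells was fitted with a four-parameter log-logistic model over log10 doses. Area under the curve was integrated from this fit by trapezoidal rule, with curves beyond full viability scaled and failed quality-control curves removed.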

SEM cells [3] = test: as above
Method in brief: as §2

P12-Ichikawa [4] = test: as above
Method in brief: as §2

CN(C)c1ccc(Nc2nc(N)n(C(=O)c3c(F)cccc3F)n2)cc1
cell viability [%]
Settings | HPLM + 10% dialyzed FBS | RPMI 5 mM glucose + 10% FBS | RPMI 5 mM glucose + 10% dialyzed FBS
P12-Ichikawa [1], 0.000781 µM | 106 | 122 | 114
P12-Ichikawa [1], 0.00234 µM | 115 | 116 | 115
P12-Ichikawa [1], 0.00702 µM | 125 | 115 | 120
P12-Ichikawa [1], 0.0211 µM | 79.5 | 70 | 72.4
P12-Ichikawa [1], 0.0632 µM | 122 | 132 | 125
P12-Ichikawa [1], 0.19 µM | 127 | 126 | 125
P12-Ichikawa [1], 0.569 µM | 121 | 130 | 118
P12-Ichikawa [1], 1.71 µM | 117 | 137 | 126
P12-Ichikawa [1], 5.12 µM | 114 | 114 | 120
P12-Ichikawa [1], 15.4 µM | 29.1 | 28.8 | 41.2
P12-Ichikawa [1], 46.1 µM | 88.2 | 60.2 | 68.3
SEM cells [2], 0.000781 µM | 105 | 108 | 102
SEM cells [2], 0.00234 µM | 118 | 110 | 118
SEM cells [2], 0.00702 µM | 110 | 123 | 117
SEM cells [2], 0.0211 µM | 92.2 | 96.8 | 76.3
SEM cells [2], 0.0632 µM | 111 | 118 | 142
SEM cells [2], 0.19 µM | 117 | 120 | 127
SEM cells [2], 0.569 µM | 97.1 | 90.2 | 95.5
SEM cells [2], 1.71 µM | 69 | 42.7 | 61.2
SEM cells [2], 5.12 µM | 43.9 | 32.3 | 34.8
SEM cells [2], 15.4 µM | 64.7 | 38 | 40.5
SEM cells [2], 46.1 µM | 56.1 | 48.7 | 40.6

AUC of viability dose-response curve
Settings | HPLM + 10% dialyzed FBS | RPMI 5 mM glucose + 10% FBS | RPMI 5 mM glucose + 10% dialyzed FBS
NOMO1 | 452 | 465 | 459
SEM cells [3] | 396 | 361 | 370

CC1COC2=C3N1\C=C(C(O)=O)/C(=O)C3=CC(=C2N4CCN(C)CC4)F (stereo not given)
cell viability [%], SEM cells [2]
Settings | HPLM + 10% dialyzed FBS | RPMI 5 mM glucose + 10% FBS
0.000781 µM | 119 | 111
0.00234 µM | 128 | 124
0.00702 µM | 122 | 125
0.0211 µM | 122 | 136
0.0632 µM | 121 | 142
0.19 µM | 125 | 118
0.569 µM | 128 | 117
1.71 µM | 119 | 122
5.12 µM | 118 | 117
15.4 µM | 120 | 106
46.1 µM | 119 | 115

AUC of viability dose-response curve
Settings | NOMO1 | P12-Ichikawa [4] | SEM cells [3]
HPLM + 10% dialyzed FBS | 459 | 463 | 470
RPMI 5 mM glucose + 10% FBS | 443 | 452 | 453
RPMI 5 mM glucose + 10% dialyzed FBS | 446 | 438 | 463

Nc1cc(c(cc1S(=O)(N)=O)S(N)(=O)=O)C(/Cl)=C(/Cl)Cl
SEM cells [2], HPLM + 10% dialyzed FBS
Settings | cell viability [%]
0.000781 µM | 110
0.00234 µM | 124
0.00702 µM | 140
0.0211 µM | 124
0.0632 µM | 128
0.19 µM | 120
0.569 µM | 132
1.71 µM | 126
5.12 µM | 86.4
15.4 µM | 10.4
46.1 µM | 9.94

AUC of viability dose-response curve
Settings | NOMO1 | P12-Ichikawa [4] | SEM cells [3]
HPLM + 10% dialyzed FBS | 344 | 335 | 396
RPMI 5 mM glucose + 10% FBS | 399 | 396 | 363
RPMI 5 mM glucose + 10% dialyzed FBS | 406 | 390 | 379

CC(=O)NC[C@H]1CN(c2ccc(N3CCOCC3)c(F)c2)C(=O)O1
AUC of viability dose-response curve
Settings | NOMO1 | P12-Ichikawa [4] | SEM cells [3]
HPLM + 10% dialyzed FBS | 415 | 465 | 475
RPMI 5 mM glucose + 10% FBS | 473 | 449 | 476
RPMI 5 mM glucose + 10% dialyzed FBS | 450 | 429 | 475

O=C(O)C1CCCN(CCC=C(c2ccccc2)c2ccccc2)C1 (stereo not given)
AUC of viability dose-response curve
Settings | NOMO1 | P12-Ichikawa [4] | SEM cells [3]
HPLM + 10% dialyzed FBS | 425 | 469 | 463
RPMI 5 mM glucose + 10% FBS | 453 | 459 | 462
RPMI 5 mM glucose + 10% dialyzed FBS | 465 | 474 | 464

CC[C@@]1([C@@H]2O[C@@H]([C@H]3O[C@@](O)(CO)[C@H](C)C[C@@H]3C)C[C@@H]2C)CC[C@H]([C@]2(C)CC[C@]3(C[C@H](O)[C@@H](C)[C@@H]([C@@H](C)[C@@H](OC)[C@H](C)C(=O)[O-])O3)O2)O1
AUC of viability dose-response curve
Settings | NOMO1 | P12-Ichikawa [4] | SEM cells [3]
HPLM + 10% dialyzed FBS | 381 | 375 | 336
RPMI 5 mM glucose + 10% FBS | 409 | 350 | 324
RPMI 5 mM glucose + 10% dialyzed FBS | 393 | 340 | 343

CC(=O)OC\C1=C(\[N@]2[C@@H](SC1)[C@H](N)C2=O)C(O)=O
SEM cells [2], HPLM + 10% dialyzed FBS
Settings | cell viability [%]
0.000781 µM | 104
0.00234 µM | 111
0.00702 µM | 119
0.0211 µM | 120
0.0632 µM | 123
0.19 µM | 141
0.569 µM | 129
1.71 µM | 138
5.12 µM | 125
15.4 µM | 126
46.1 µM | 97.1

AUC of viability dose-response curve
Settings | NOMO1 | P12-Ichikawa [4] | SEM cells [3]
HPLM + 10% dialyzed FBS | 330 | 346 | 462
RPMI 5 mM glucose + 10% FBS | 306 | 348 | 473
RPMI 5 mM glucose + 10% dialyzed FBS | 324 | 370 | 470

— the supplement of paper PMC11451515
